Source: US20240310368A1, “DETECTION KIT FOR CATECHOLAMINES AND METABOLITES THEREOF IN PLASMA/URINE AND DETECTION METHOD THEREOF” (Calibra Scientific, Inc., priority 2023, published 2024)
“And” between values parts separate entries of the source, which are not always exact repeats. Equal entries are not always repeated. Blank lines part the entries; values can stand above or below the compound they belong to.

Experiments:
[1] = Acceleration test of plasma samples with stabilizers (30° C. for 1.5 days, against control plasma stored at −95° C. to −65° C.), LC-MS/MS Area/IS Area
Protocol: Samples were collected in EDTA-anticoagulant blood collection tubes and then rapidly subjected to […] centrifugation at 2-8° C. to separate plasma. 0.95 mL of the plasma was transferred into centrifuge tubes. After 50 μL of the stabilizer was added for uniform mixing, the plasma samples were stored by refrigeration or freezing.
• (1) 500 μL of plasma/urine samples to be tested were taken, and 50 μL of the internal standard solution and 500 μL of the buffer solution were sequentially added for vertex mixing to obtain diluted samples. • (2) The magnetic medium composite material suspension was subjected to full vortex treatment to reach a suspension state, and then subsequent operation was performed. • (3) Different reagents were added into wells of a preprocessing plate according to the follow operation: adding 200 μL of the magnetic medium composite material suspension in column 1, adding 500 μL of the balance solution in column 2, adding 850 μL of the diluted samples in column 3, adding 500 μL of the balance solution in column 4, adding 200 μL of a rinsing solution in column 5, and adding 100 μL of the elution solution in column 6. • (4) An extraction operation procedure was carried out, as shown in Table 5.
Each group of the plasma samples were stored at 30° C. for 1.5 days, and plasma without addition of any compounds stored at −95° C. to −65° C. was used as a control. […] The stabilizing effect of the single-component stabilizers on the plasma samples was investigated.
The stabilizers were mixed with plasma (the volume ratio of the stabilizers to plasma samples was 1:19), and high concentration plasma samples and low concentration plasma samples were prepared by the method provided in Example 1.
With plasma stored at −95° C. to −65° C. as a control, the above plasma samples were separately stored at 30° C. for 1.5 days to investigate the stability. […]

[2] = Stabilizing effect of accelerated stabilizers (37° C., 14 days) on standard products and quality control products then accelerated at 30° C. for 2 days; assay type: physicochemical; conditions: for Relative deviation %: 2 days at 30° C. vs Control; for concentration in standard products and quality control products, 2 days at 30° C. / concentration in standard products and quality control products, Control: single replicates
Protocol: Standard products of epinephrine, norepinephrine, dopamine, metanephrine, normetanephrine and 3-methoxytyramine were prepared into mixed solutions, and blank plasma containing a stabilizer was used as a matrix to prepare standard products and quality control products.
(§1) In the present example, the stabilizing effect of the stabilizers on plasma samples, standard products and quality control products after acceleration was further verified. The stabilizers were accelerated at 37° C. for 14 days (equivalent to 1 year at 2-8° C.), added into the plasma samples in proportions and then accelerated at 30° C. for 1.5 days (equivalent to 12 months at −30° C. to −15° C.). The stabilizers were accelerated at 37° C. for 14 days (equivalent to 1 year at 2-8° C.), added into the standard products and the quality control products in proportions and then accelerated at 30° C. for 2 days (equivalent to 18 months at −30° C. to −15° C.).

[3] = Stabilizing effect of accelerated stabilizers (37° C., 14 days) on plasma samples then accelerated at 30° C. for 1.5 days; assay type: physicochemical, human; conditions: for Relative deviation %: Accelerate vs Control; for concentration in plasma samples, Control / concentration in plasma samples, Accelerate: single replicates; for concentration in plasma samples, Accelerate: stabilizer accelerated 37° C. 14 days, plasma then accelerated at 30° C. for 1.5 days
Protocol: as §1

[4] = samples at a high concentration level
[5] = samples at a low concentration level

Ratio (Area/IS Area) E ([1]; plasma at a high concentration level, plasma containing 500 μg/mL of the component, control plasma 0.624): 0 | Ratio (Area/IS Area) NE ([1]; plasma at a high concentration level, plasma containing 500 μg/mL of the component, control plasma 1.522): 0 | Ratio (Area/IS Area) DA ([1]; plasma at a high concentration level, plasma containing 500 μg/mL of the component, control plasma 2.27): 0 | Ratio (Area/IS Area) E ([1]; plasma at a high concentration level, plasma containing 2,000 μg/mL of the component, control plasma 0.624): 0 | Ratio (Area/IS Area) NE ([1]; plasma at a high concentration level, plasma containing 2,000 μg/mL of the component, control plasma 1.522): 0 | Ratio (Area/IS Area) DA ([1]; plasma at a high concentration level, plasma containing 2,000 μg/mL of the component, control plasma 2.27): 0 | Ratio (Area/IS Area) E ([1]; plasma at a low concentration level, plasma containing 500 μg/mL of the component, control plasma 0.079): 0 | Ratio (Area/IS Area) NE ([1]; plasma at a low concentration level, plasma containing 500 μg/mL of the component, control plasma 0.219): 0 | Ratio (Area/IS Area) DA ([1]; plasma at a low concentration level, plasma containing 500 μg/mL of the component, control plasma 0.233): 0 | Ratio (Area/IS Area) E ([1]; plasma at a low concentration level, plasma containing 2,000 μg/mL of the component, control plasma 0.079): 0 | Ratio (Area/IS Area) NE ([1]; plasma at a low concentration level, plasma containing 2,000 μg/mL of the component, control plasma 0.219): 0 | Ratio (Area/IS Area) DA ([1]; plasma at a low concentration level, plasma containing 2,000 μg/mL of the component, control plasma 0.233): 0
SMILES: O=C(O)CC(O)(CC(=O)O)C(=O)O [citric acid]

SMILES: O=C(O)CN(CCN(CC(=O)O)CC(=O)O)CC(=O)O.[Na].[Na] [disodium EDTA, disodium ethylenediaminetetraacetic acid]
Ratio (Area/IS Area) E ([1]; plasma at a high concentration level, plasma containing 50 μg/mL of the component, control plasma 0.624): 0 | Ratio (Area/IS Area) NE ([1]; plasma at a high concentration level, plasma containing 50 μg/mL of the component, control plasma 1.522): 0 | Ratio (Area/IS Area) DA ([1]; plasma at a high concentration level, plasma containing 50 μg/mL of the component, control plasma 2.27): 0 | Ratio (Area/IS Area) E ([1]; plasma at a high concentration level, plasma containing 200 μg/mL of the component, control plasma 0.624): 0 | Ratio (Area/IS Area) NE ([1]; plasma at a high concentration level, plasma containing 200 μg/mL of the component, control plasma 1.522): 0 | Ratio (Area/IS Area) DA ([1]; plasma at a high concentration level, plasma containing 200 μg/mL of the component, control plasma 2.27): 0 | Ratio (Area/IS Area) E ([1]; plasma at a low concentration level, plasma containing 50 μg/mL of the component, control plasma 0.079): 0 | Ratio (Area/IS Area) NE ([1]; plasma at a low concentration level, plasma containing 50 μg/mL of the component, control plasma 0.219): 0 | Ratio (Area/IS Area) DA ([1]; plasma at a low concentration level, plasma containing 50 μg/mL of the component, control plasma 0.233): 0 | Ratio (Area/IS Area) E ([1]; plasma at a low concentration level, plasma containing 200 μg/mL of the component, control plasma 0.079): 0 | Ratio (Area/IS Area) NE ([1]; plasma at a low concentration level, plasma containing 200 μg/mL of the component, control plasma 0.219): 0 | Ratio (Area/IS Area) DA ([1]; plasma at a low concentration level, plasma containing 200 μg/mL of the component, control plasma 0.233): 0 | stabilizing effect on catecholamines in plasma ([1]; single components as stabilizers): no obvious stabilizing effect

SMILES: COc1cc(C(O)CN)ccc1O (stereo not shown) [NMN]
Relative deviation % ([2]; High concentration level): −3.68% | average concentration, 2 days at 30° C. ([2]; High concentration level): 1910.2 pg/mL | concentration in standard products and quality control products, 2 days at 30° C. ([2]; High concentration level): 1.89388 ng/mL and 1.85479 ng/mL and 1.98193 ng/mL | average concentration, Control ([2]; High concentration level): 1983.21 pg/mL | concentration in standard products and quality control products, Control ([2]; High concentration level): 2.00785 ng/mL and 1.95209 ng/mL and 1.98969 ng/mL | Relative deviation % ([2]; Low concentration level): 1.41% | average concentration, 2 days at 30° C. ([2]; Low concentration level): 24.2 pg/mL | concentration in standard products and quality control products, 2 days at 30° C. ([2]; Low concentration level): 0.02503 ng/mL and 0.02506 ng/mL and 0.0225 ng/mL | average concentration, Control ([2]; Low concentration level): 23.86 pg/mL | concentration in standard products and quality control products, Control ([2]; Low concentration level): 0.02255 ng/mL and 0.02588 ng/mL and 0.02315 ng/mL | Relative deviation % ([2]; Medium concentration level): 1.5% | average concentration, 2 days at 30° C. ([2]; Medium concentration level): 405.18 pg/mL | concentration in standard products and quality control products, 2 days at 30° C. ([2]; Medium concentration level): 0.39387 ng/mL and 0.42435 ng/mL and 0.39731 ng/mL | average concentration, Control ([2]; Medium concentration level): 399.18 pg/mL | concentration in standard products and quality control products, Control ([2]; Medium concentration level): 0.39333 ng/mL and 0.41828 ng/mL and 0.38593 ng/mL | Relative deviation % [3, 4]: 2.1% | concentration in plasma samples, Control [3, 4]: 0.97087 ng/mL and 0.85456 ng/mL and 0.85498 ng/mL | concentration in plasma samples, Accelerate [3, 4]: 0.91096 ng/mL and 0.88464 ng/mL and 0.94153 ng/mL | Relative deviation % [3, 5]: 1.7% | concentration in plasma samples, Control [3, 5]: 0.17577 ng/mL and 0.16472 ng/mL and 0.17242 ng/mL | concentration in plasma samples, Accelerate [3, 5]: 0.17659 ng/mL and 0.17047 ng/mL and 0.17436 ng/mL
